This passage reports MIC results from ChEMBL document CHEMBL3232938, “Design, synthesis, and biological evaluation of dihydroartemisinin-fluoroquinolone conjugates as a novel type of potential antitubercular agents” (2014).

Values after ≈ are worked out from the molar mass of the structure shown.

Common to all, as to format: functional
The test system of experiment [1] is Mycobacterium tuberculosis. In words: Antibacterial activity against multidrug-resistant 1 ug/ml Mycobacterium tuberculosis clinical isolate 1259 assessed as growth inhibition after 7 days by microtiter plate assay. To be noted: isolate 1259, 168 h.
Experiment [2] has as its system Mycobacterium tuberculosis. The experiment in a line: Antibacterial activity against multidrug-resistant 1 ug/ml Mycobacterium tuberculosis clinical isolate 1288 assessed as growth inhibition after 7 days by microtiter plate assay. To be noted: isolate 1288, 168 h.
Experiment [3] has as its system Mycobacterium tuberculosis. In words: Antibacterial activity against multidrug-resistant 1 ug/ml Mycobacterium tuberculosis clinical isolate 1237 assessed as growth inhibition after 7 days by microtiter plate assay. Particulars: isolate 1237, 168 h.
Experiment [4] concerns Mycobacterium tuberculosis. The experiment in a line: Antibacterial activity against multidrug-resistant 1 ug/ml Mycobacterium tuberculosis clinical isolate 930 assessed as growth inhibition after 7 days by microtiter plate assay. To be noted: isolate 930, 168 h.
The subject of experiment [5] is Mycobacterium tuberculosis. The experiment in a line: Antibacterial activity against multidrug-resistant 1 ug/ml Mycobacterium tuberculosis clinical isolate 1256 assessed as growth inhibition after 7 days by microtiter plate assay. To be noted: isolate 1256, 168 h.

`C[C@H]1[C@@H](OCCCNC2CCN(c3c(F)cc4c(=O)c(C(=O)O)cn(C5CC5)c4c3Cl)C2)O[C@@H]2O[C@@]3(C)CC[C@H]4[C@H](C)CC[C@@H]1[C@@]24OO3` (stereo not given in full): the MIC was determined as 2 µg/mL (≈ 2.9 µM) in experiment [1]; 0.125 µg/mL (≈ 0.181 µM) in experiment [2]; 2 µg/mL (≈ 2.9 µM) in experiment [3]; 4 µg/mL (≈ 5.8 µM) in experiment [4]; 16 µg/mL (≈ 23.2 µM) in experiment [5].
For the compound `C[C@H]1[C@@H](OCCNC2CCN(c3c(F)cc4c(=O)c(C(=O)O)cn(C5CC5)c4c3Cl)C2)O[C@@H]2O[C@@]3(C)CC[C@H]4[C@H](C)CC[C@@H]1[C@@]24OO3` (stereo not given in full), the MIC in experiment [1] is 2 µg/mL (≈ 2.96 µM); in experiment [2] it was 0.125 µg/mL (≈ 0.185 µM); in experiment [3], 2 µg/mL (≈ 2.96 µM); in experiment [4] it was 4 µg/mL (≈ 5.92 µM); in experiment [5], 16 µg/mL (≈ 23.7 µM).
As to `C[C@H]1[C@@H](O)O[C@@H]2O[C@@]3(C)CC[C@H]4[C@H](C)CC[C@@H]1[C@@]24OO3` [ARTENIMOL], the minimal inhibitory concentration (MIC) in experiment [1], in experiment [2], in experiment [3], in experiment [4] and in experiment [5] was greater than 16 µg/mL throughout.
Turning to `NC1CCN(c2c(F)cc3c(=O)c(C(=O)O)cn(C4CC4)c3c2Cl)C1` (stereo not given) [CLINAFLOXACIN], the MIC in experiment [1] came to 0.125 µg/mL (≈ 0.342 µM); in experiment [2] it was 1 µg/mL (≈ 2.73 µM); in experiment [3] it was 1 µg/mL (≈ 2.73 µM); in experiment [4] it was 4 µg/mL (≈ 10.9 µM); in experiment [5], 0.5 µg/mL (≈ 1.37 µM).
`CCn1cc(C(=O)O)c(=O)c2cc(F)c(N3CCNCC3)cc21` [NORFLOXACIN]: the MIC in experiment [1] is 2 µg/mL (≈ 6.26 µM); in experiment [2], greater than 16 µg/mL; in experiment [3] it was greater than 16 µg/mL; in experiment [4] it was greater than 16 µg/mL; in experiment [5], 16 µg/mL (≈ 50.1 µM).
`O=C(O)c1cn(-c2ccc(F)cc2)c2cc(N3CCNCC3)c(F)cc2c1=O` [SARAFLOXACIN]: the MIC is 4 µg/mL (≈ 10.4 µM) in experiment [1]; greater than 16 µg/mL in experiment [2]; greater than 16 µg/mL in experiment [3]; greater than 16 µg/mL in experiment [4]; 16 µg/mL (≈ 41.5 µM) in experiment [5].
